Laboratory results: the kinase profiling compilation of Christmann-Franck et al. (2016)

Key:
Experiment in all cases: Free Choice Kinase Assay Projects, Flashplate
CDK2 CCNA2 (human) = CDK2 CCNA2 (human) (UniProt P24941+P20248); conditions: compound 10.0 µM; ATP 0.3 µM
SRC (human) = SRC (human) (UniProt P12931); conditions: compound 10.0 µM; ATP 0.3 µM
PLK4 (human) = PLK4 (human) (UniProt O00444); conditions: compound 10.0 µM; ATP 0.3 µM
PTK2 (human) = PTK2 (human) (UniProt Q05397); conditions: compound 10.0 µM; ATP 1 µM
PDGFRB (human) = PDGFRB (human) (UniProt P09619); conditions: compound 10.0 µM; ATP 0.3 µM
MAPK14 (human) = MAPK14 (human) (UniProt Q16539); conditions: compound 10.0 µM; ATP 1 µM
AURKB (human) = AURKB (human) (UniProt Q96GD4); conditions: compound 10.0 µM; ATP 10 µM
ERBB2 (human) = ERBB2 (human) (UniProt P04626); conditions: compound 10.0 µM; ATP 1 µM
MAPK10 (human) = MAPK10 (human) (UniProt P53779); conditions: compound 10.0 µM; ATP 0.3 µM
KDR (human) = KDR (human) (UniProt P35968); conditions: compound 10.0 µM; ATP 1 µM
EPHB4 (human) = EPHB4 (human) (UniProt P54760); conditions: compound 10.0 µM; ATP 1 µM
AURKA (human) = AURKA (human) (UniProt O14965); conditions: compound 10.0 µM; ATP 10 µM
IGF1R (human) = IGF1R (human) (UniProt P08069); conditions: compound 10.0 µM; ATP 1 µM
[1] = tested on: BRAF (human), P15056 [V600E]; conditions: compound 10.0 µM; ATP 3 µM
CDK4 CCND1 (human) = CDK4 CCND1 (human) (UniProt P11802+P24385); conditions: compound 10.0 µM; ATP 3 µM
PLK1 (human) = PLK1 (human) (UniProt P53350); conditions: compound 10.0 µM; ATP 1 µM
AXL (human) = AXL (human) (UniProt P30530); conditions: compound 10.0 µM; ATP 0.3 µM
CSNK2A1 (human) = CSNK2A1 (human) (UniProt P68400); conditions: compound 10.0 µM; ATP 0.1 µM
MAP3K8 (human) = MAP3K8 (human) (UniProt P41279); conditions: compound 10.0 µM; ATP 3 µM
NUAK1 (human) = NUAK1 (human) (UniProt O60285); conditions: compound 10.0 µM; ATP 1 µM
MET (human) = MET (human) (UniProt P08581); conditions: compound 10.0 µM; ATP 0.3 µM
AKT1 (human) = AKT1 (human) (UniProt P31749); conditions: compound 10.0 µM; ATP 3 µM
TEK (human) = TEK (human) (UniProt Q02763); conditions: compound 10.0 µM; ATP 1 µM
EGFR (human) = EGFR (human) (UniProt P00533); conditions: compound 10.0 µM; ATP 0.3 µM

MAPK10 (human), sequence (P53779 whole entry, looked up): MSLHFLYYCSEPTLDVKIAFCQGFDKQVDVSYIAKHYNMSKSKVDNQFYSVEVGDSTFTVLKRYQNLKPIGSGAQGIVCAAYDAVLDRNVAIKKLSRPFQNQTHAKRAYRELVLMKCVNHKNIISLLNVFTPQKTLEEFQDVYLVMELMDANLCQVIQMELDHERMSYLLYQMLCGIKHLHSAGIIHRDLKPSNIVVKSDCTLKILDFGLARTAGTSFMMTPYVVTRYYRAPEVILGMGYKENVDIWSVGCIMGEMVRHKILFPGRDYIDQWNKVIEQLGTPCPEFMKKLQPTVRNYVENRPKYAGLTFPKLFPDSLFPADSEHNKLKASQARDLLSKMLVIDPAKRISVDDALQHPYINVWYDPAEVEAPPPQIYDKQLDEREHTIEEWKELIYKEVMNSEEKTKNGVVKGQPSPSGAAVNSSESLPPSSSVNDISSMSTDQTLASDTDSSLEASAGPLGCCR
SRC (human), sequence (P12931 whole entry, looked up): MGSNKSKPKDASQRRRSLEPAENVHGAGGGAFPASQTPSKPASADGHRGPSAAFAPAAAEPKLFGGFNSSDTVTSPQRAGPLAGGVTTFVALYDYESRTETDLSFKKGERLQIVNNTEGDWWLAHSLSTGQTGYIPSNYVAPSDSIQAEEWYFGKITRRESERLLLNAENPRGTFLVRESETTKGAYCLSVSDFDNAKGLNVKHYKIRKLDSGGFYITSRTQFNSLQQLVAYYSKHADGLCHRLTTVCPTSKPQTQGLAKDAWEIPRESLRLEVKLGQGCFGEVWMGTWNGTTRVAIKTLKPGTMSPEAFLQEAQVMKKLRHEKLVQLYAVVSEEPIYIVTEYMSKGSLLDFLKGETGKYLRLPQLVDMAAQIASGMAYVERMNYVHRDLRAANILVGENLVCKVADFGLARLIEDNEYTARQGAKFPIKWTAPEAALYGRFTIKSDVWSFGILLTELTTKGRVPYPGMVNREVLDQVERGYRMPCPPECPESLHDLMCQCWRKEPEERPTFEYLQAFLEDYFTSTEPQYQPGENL
AURKB (human), sequence (Q96GD4 whole entry, looked up): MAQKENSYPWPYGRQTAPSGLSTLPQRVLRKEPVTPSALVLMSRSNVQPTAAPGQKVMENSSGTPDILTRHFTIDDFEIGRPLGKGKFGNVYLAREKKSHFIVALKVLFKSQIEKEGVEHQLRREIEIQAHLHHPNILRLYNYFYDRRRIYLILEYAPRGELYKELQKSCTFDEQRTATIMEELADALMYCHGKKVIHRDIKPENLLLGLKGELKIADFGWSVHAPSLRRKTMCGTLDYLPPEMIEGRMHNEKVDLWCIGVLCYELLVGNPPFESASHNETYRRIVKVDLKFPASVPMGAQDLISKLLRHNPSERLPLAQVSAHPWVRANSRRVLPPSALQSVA
AKT1 (human), sequence (P31749 whole entry, looked up): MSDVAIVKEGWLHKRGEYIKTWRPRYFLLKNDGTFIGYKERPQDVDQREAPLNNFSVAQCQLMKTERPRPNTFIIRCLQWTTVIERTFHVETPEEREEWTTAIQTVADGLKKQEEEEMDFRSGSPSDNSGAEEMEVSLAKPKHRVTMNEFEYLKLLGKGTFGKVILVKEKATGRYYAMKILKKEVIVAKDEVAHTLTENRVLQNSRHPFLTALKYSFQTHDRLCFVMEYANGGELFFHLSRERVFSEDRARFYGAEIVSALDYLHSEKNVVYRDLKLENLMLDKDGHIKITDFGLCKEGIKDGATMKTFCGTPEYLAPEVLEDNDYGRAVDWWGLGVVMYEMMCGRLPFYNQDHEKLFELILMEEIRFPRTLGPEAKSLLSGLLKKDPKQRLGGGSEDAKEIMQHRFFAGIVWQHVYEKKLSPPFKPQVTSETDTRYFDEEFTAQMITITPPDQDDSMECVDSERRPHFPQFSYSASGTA
IGF1R (human), sequence (P08069 whole entry, looked up): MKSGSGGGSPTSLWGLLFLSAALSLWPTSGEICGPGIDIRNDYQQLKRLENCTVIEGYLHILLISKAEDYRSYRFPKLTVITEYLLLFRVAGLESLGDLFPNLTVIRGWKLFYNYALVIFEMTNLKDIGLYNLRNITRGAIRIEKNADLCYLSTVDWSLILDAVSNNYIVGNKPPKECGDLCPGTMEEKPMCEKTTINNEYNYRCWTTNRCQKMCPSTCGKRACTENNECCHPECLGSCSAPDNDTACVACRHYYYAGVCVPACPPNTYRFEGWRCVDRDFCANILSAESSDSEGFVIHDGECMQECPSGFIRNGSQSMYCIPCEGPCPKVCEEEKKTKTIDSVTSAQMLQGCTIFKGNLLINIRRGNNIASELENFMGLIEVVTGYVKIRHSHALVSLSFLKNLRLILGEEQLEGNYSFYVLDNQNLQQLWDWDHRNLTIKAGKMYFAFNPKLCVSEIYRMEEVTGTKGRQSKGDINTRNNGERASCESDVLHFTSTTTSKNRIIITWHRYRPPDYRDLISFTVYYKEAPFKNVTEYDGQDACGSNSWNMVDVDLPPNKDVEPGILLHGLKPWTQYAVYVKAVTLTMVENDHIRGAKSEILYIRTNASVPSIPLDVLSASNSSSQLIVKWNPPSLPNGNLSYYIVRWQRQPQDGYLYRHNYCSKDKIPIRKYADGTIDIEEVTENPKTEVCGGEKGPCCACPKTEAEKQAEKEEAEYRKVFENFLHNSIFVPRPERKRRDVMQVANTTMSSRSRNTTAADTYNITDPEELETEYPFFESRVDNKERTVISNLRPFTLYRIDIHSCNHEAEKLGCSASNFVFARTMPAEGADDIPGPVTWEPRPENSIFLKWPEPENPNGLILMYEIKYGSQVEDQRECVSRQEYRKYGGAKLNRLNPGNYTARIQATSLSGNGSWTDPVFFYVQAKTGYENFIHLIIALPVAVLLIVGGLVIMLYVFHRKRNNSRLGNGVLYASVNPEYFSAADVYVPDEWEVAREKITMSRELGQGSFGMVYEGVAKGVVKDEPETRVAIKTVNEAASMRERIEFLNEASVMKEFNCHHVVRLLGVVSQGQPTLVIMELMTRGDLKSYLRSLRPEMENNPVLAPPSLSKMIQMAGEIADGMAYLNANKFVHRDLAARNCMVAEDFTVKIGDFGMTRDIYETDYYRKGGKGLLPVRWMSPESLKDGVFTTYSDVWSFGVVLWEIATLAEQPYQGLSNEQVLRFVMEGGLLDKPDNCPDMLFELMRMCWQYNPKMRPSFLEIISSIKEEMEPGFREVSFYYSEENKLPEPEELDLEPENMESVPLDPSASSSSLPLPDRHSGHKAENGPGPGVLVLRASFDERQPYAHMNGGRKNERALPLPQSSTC
PLK1 (human), sequence (P53350 whole entry, looked up): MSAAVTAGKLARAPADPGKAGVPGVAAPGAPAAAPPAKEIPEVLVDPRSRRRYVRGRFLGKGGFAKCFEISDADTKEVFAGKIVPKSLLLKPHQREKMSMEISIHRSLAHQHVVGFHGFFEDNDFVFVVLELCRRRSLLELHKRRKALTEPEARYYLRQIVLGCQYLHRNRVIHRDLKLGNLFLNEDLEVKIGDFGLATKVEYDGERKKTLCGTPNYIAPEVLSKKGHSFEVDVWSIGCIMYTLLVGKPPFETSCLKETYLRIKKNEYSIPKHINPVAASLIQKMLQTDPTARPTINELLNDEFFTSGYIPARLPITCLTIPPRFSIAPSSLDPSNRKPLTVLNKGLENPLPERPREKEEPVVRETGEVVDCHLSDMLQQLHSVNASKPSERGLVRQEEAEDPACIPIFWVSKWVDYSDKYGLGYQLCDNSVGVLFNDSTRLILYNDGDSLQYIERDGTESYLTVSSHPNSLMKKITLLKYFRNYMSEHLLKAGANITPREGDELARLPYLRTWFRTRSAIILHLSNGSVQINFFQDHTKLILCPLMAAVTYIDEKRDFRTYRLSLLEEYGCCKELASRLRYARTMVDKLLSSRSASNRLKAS
CDK2 CCNA2 (human), sequence (P20248 whole entry, looked up, other chains not shown): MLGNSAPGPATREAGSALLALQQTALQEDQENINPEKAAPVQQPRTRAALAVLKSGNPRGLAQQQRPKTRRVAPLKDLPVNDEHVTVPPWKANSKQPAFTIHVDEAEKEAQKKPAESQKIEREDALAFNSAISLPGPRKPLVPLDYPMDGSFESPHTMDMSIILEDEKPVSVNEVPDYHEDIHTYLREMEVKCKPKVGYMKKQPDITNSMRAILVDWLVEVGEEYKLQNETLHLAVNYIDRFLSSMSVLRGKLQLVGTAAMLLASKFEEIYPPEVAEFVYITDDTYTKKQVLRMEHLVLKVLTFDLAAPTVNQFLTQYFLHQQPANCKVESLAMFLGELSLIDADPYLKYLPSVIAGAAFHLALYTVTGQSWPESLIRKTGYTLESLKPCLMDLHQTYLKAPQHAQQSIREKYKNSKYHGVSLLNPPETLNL
MAPK14 (human), sequence (Q16539 whole entry, looked up): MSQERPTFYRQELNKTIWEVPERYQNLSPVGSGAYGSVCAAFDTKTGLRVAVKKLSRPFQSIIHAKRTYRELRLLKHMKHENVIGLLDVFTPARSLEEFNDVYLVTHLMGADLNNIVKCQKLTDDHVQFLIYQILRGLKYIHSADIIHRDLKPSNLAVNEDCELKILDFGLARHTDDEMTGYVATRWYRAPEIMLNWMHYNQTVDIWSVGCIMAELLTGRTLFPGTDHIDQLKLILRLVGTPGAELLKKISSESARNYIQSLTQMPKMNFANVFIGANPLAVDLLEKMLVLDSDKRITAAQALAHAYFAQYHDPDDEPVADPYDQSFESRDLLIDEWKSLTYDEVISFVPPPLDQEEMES
AURKA (human), sequence (O14965 whole entry, looked up): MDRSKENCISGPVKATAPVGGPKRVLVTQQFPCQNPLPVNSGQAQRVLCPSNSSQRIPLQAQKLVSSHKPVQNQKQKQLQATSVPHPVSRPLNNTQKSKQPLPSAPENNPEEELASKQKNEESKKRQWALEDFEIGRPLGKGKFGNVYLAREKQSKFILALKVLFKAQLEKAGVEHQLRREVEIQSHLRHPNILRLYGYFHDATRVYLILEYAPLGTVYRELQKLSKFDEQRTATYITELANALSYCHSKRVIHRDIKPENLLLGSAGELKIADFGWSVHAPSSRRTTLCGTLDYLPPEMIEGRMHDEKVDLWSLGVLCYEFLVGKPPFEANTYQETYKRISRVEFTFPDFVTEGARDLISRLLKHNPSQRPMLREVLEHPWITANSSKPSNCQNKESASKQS

Row | residual activity (CDK2 CCNA2 (human)) | residual activity (SRC (human)) | residual activity (PLK4 (human)) | residual activity (PTK2 (human)) | residual activity (PDGFRB (human)) | residual activity (MAPK14 (human)) | residual activity (AURKB (human)) | residual activity (ERBB2 (human)) | residual activity (MAPK10 (human)) | residual activity (KDR (human)) | residual activity (EPHB4 (human)) | residual activity (AURKA (human)) | residual activity (IGF1R (human)) | residual activity (CDK4 CCND1 (human)) | residual activity (PLK1 (human)) | residual activity (AXL (human)) | residual activity (CSNK2A1 (human)) | residual activity (MAP3K8 (human)) | residual activity (NUAK1 (human)) | residual activity (MET (human)) | Structure (SMILES) | other results
1 | 20% | 8% | 9% | 124% | 39% | 3% | 57% | 9% | 17% | 24% | 21% | 54% | 17% | 44% | 46% | 59% | 77% | 46% | 53% | 40% | Fc1ccc(-c2[nH]c(SCc3cccc4ccccc34)nc2-c2ccncc2)cc1 | residual activity (AKT1 (human)): 60%; residual activity (TEK (human)): 11%; residual activity (EGFR (human)): 8%
2 | 72% | 43% | 56% | 95% | 80% | 41% | 78% | 41% | 81% | 45% | 48% | 75% | 43% | 59% | 93% | 84% | 96% | 69% | 77% | 66% | Fc1ccc(-c2[nH]c(SCCc3ccccc3)nc2-c2ccncc2)cc1 | residual activity (AKT1 (human)): 122%; residual activity (TEK (human)): 51%; residual activity (EGFR (human)): 24%
3 | 54% | 32% | 38% | 128% | 64% | 6% | 74% | 11% | 46% | 42% | 44% | 74% | 49% | 79% | 104% | 96% | 90% | 91% | 108% | 71% | Oc1ccccc1CSc1nc(-c2ccncc2)c(-c2ccc(F)cc2)[nH]1 | residual activity (AKT1 (human)): 137%; residual activity (TEK (human)): 32%; residual activity (EGFR (human)): 11%

The remaining lines, values behind:

Row | Structure (SMILES) | residual activity (CDK2 CCNA2 (human)) | residual activity (SRC (human)) | residual activity (PLK4 (human)) | residual activity (PTK2 (human)) | residual activity (PDGFRB (human)) | residual activity (MAPK14 (human)) | residual activity (AURKB (human)) | residual activity (ERBB2 (human)) | residual activity (MAPK10 (human)) | residual activity (KDR (human)) | residual activity (EPHB4 (human)) | residual activity (AURKA (human)) | residual activity (IGF1R (human)) | residual activity (CDK4 CCND1 (human)) | residual activity (PLK1 (human)) | residual activity (AXL (human)) | residual activity (CSNK2A1 (human)) | residual activity (MAP3K8 (human)) | residual activity (NUAK1 (human)) | residual activity (MET (human)) | other results
4 | Oc1ccc(CSc2nc(-c3ccncc3)c(-c3ccc(F)cc3)[nH]2)cc1 | 117% | 34% | 51% | 99% | 65% | 4% | 78% | 22% | 48% | 26% | 42% | 64% | 104% | 103% | 120% | 91% | 107% | 96% | 126% | 78% | residual activity [1]: 5%; residual activity (AKT1 (human)): 130%; residual activity (TEK (human)): 33%; residual activity (EGFR (human)): 20%
5 | Fc1ccc(-c2[nH]c(SCc3ccccc3)nc2-c2ccnc(F)c2)cc1 | 71% | 18% | 128% | 90% | 70% | 7% | 85% | 9% | 88% | 32% | 77% | 93% | 41% | 109% | 131% | 75% | 86% | 106% | 127% | 76% | residual activity (AKT1 (human)): 155%; residual activity (TEK (human)): 34%; residual activity (EGFR (human)): 17%
